We go through 21 compounds from ChEMBL document CHEMBL5252563, “Structure-activity relationship studies of anti-bunyaviral cap-dependent endonuclease inhibitors” (Bioorg Med Chem Lett, 2023).

Where only a bound is given, the exact number is not on record here.

For data set [1], the system named is Junin virus. The data set is described as follows: Antiviral activity against Junin virus. Type of data set: functional, organism-based. The following applies: Mammarenavirus juninense.
Data set [2] deals with Mammarenavirus choriomeningitidis. The experiment in a line: Antiviral activity against Lymphocytic choriomeningitis virus. In kind it is functional, organism-based.
For data set [3], the system named is Junin virus. The data set is described as follows: Potency index, ratio of ribavirin EC50 to test compound EC50 for antiviral activity against Junin virus. In kind it is functional, Mammarenavirus juninense.
Data set [4] in a line: Metabolic stability in human liver microsomes. In kind it is ADME, Microsome. A general note: Microsomes from liver hold many membrane-bound enzymes, among them those of drug oxidation.
The nature of data set [5]: Unbound fraction in rat serum at 2 umol/kg, po or 1 umol/kg, iv administered as cassette dose. Type of data set: ADME, organism-based. The following applies: at 2 µmol/kg.
The nature of data set [6]: Metabolic stability in rat liver microsomes. Type of data set: ADME, Microsome.
Data set [7] is described as follows: AUC in rat at 1 umol/kg, iv administered as cassette dose. In kind it is ADME, organism-based. Also noted: dose 1 µmol/kg, route iv. The conditions noted are these: in vivo.
For data set [8], the system named is Mammarenavirus choriomeningitidis. The experiment in a line: Potency index, ratio of ribavirin EC50 to test compound EC50 for antiviral activity against Lymphocytic choriomeningitis virus. In kind it is functional.
The nature of data set [9]: Elimination half-life in rat at 2 umol/kg, po or 1 umol/kg, iv administered as cassette dose. In kind it is ADME, organism-based. The following applies: in vivo, dose 2 µmol/kg, read-out: LambdaZ (converted).
Data set [10] can be described thus: Bioavailability in rat at 2 umol/kg, po or 1 umol/kg, iv administered as cassette dose. The following applies: in vivo, at 2 µmol/kg. Type of data set: ADME, organism-based.

On to `COCCN1CN(C2c3ccccc3CCc3ccccc32)n2cc(C(=O)O)c(=O)c(O)c2C1=O`, for which the results for the 50% effective concentration (EC50) (with Junin virus [1]; in [2]) were 5 nM and 5.3 nM, respectively.
For `Cc1ccc2c(c1)C(N1CN(C(C)C)C(=O)c3c(O)c(=O)c(C(=O)O)cn31)c1cc(C)ccc1CC2` the same measures were 176 nM and 100 nM.
For `CCN(CC)CCN1CN(C2c3ccccc3CCc3ccccc32)n2cc(C(=O)O)c(=O)c(O)c2C1=O` the same measures were above 1000 nM and above 1000 nM.
For `CC(C)N1CN(Cc2ccccc2-c2ccccc2)n2cc(C(=O)O)c(=O)c(O)c2C1=O` the same measures were 437 nM and 499 nM.
As for `O=C(Nc1nnn[nH]1)c1cn2c(c(O)c1=O)C(=O)N(CC1CC1)CN2C1c2ccccc2CCc2ccccc21`, the half-maximal effective concentration (EC50) (in general, the midpoint of the concentration-response curve) in the data set with Junin virus [1] stood at 404 nM; in [2] it was 284 nM.
`O=C(NO)c1cn2c(c(O)c1=O)C(=O)N(CC1CC1)CN2C1c2ccccc2CCc2ccccc21`: the EC50 was determined as 120 nM with Junin virus [1] and 109 nM in [2].
For `O=C(O)c1cn2c(c(O)c1=O)C(=O)N(CC1CCCC1)CN2C1c2ccccc2CCc2ccccc21` the same measures were 25 nM and 17 nM.
The corresponding values for `Cc1cccc2c1CCc1c(C)cccc1C2N1CN(C(C)C)C(=O)c2c(O)c(=O)c(C(=O)O)cn21` are 3.1 nM and 1.7 nM.
`CCN1CN(C2c3ccccc3CCc3ccccc32)n2cc(C(=O)O)c(=O)c(O)c2C1=O`: the concentration giving a half-maximal response (EC50) was found to be 3.3 nM in the data set with Junin virus [1] and 6.2 nM in [2].
In the case of `CC(C)N1CN(C2c3ccccc3CCc3ccccc32)n2cc(C(=O)O)c(=O)c(O)c2C1=O`, the “Ratio EC50” value (in the data set with Junin virus [3]; in [8]) was 1000 in each case. Also, the EC50 in the data set on Junin virus [1] worked out at 2.4 nM; in data set [2], 4.5 nM. The Stability came out at 107% in data set [4] and 81.8% in data set [6]. In addition, the free fraction (fraction unbound) (as a rule, the share of the substance not bound to proteins or other matrix) in data set [5] amounted to 0.00293. Besides, the AUC (commonly the area under the concentration-time curve, a measure of exposure) in [7] came out at 0.928 µM·h. In [9], the half-life is 2 h. The bioavailability (as a rule, dose-corrected exposure relative to a reference, in per cent) in [10] turned out to be 10.1%.
Consider `CC(C)N1CN(C2c3ccccc3CSc3ccccc32)n2cc(C(=O)O)c(=O)c(O)c2C1=O` (stereo not drawn), for which the “Ratio EC50” value (with Junin virus [3]; in data set [8]) was 1000 in each case. Besides, the concentration giving a half-maximal response (EC50) with Junin virus [1] was 3.6 nM; in data set [2], 8 nM.
On to `COC(=O)c1cn2c(c(O)c1=O)C(=O)N(CC1CC1)CN2C1c2ccccc2CCc2ccccc21`, for which the half-maximal effective concentration (EC50) in the data set on Junin virus [1] is 271 nM; in data set [2], 305 nM.
For `O=C(O)c1cn2c(c(O)c1=O)C(=O)N(C1CC1)CN2C1c2ccccc2CCc2ccccc21` the same measures were 13.4 nM and 7.8 nM.
On to `O=C(O)c1cn2c(c(O)c1=O)C(=O)N(CC1CC1)CN2C1c2ccccc2CCc2ccccc21`, for which the EC50 in the data set with Junin virus [1] is 5.8 nM; in [2], 4.1 nM. For the same compound, the Stability in data set [4] is given as 100%; in data set [6], 95.3%. The unbound share (fraction unbound) in data set [5] is 0.0136. Besides, the AUC in data set [7] came out at 1.47 µM·h. The half-life in data set [9] is 1.5 h. The compound further yielded a bioavailability in [10] of 8.2%.
For `CN1CN(C2c3ccccc3CCc3ccccc32)n2cc(C(=O)O)c(=O)c(O)c2C1=O`, the EC50 in the data set with Junin virus [1] stood at 9.2 nM; in data set [2] it was 24 nM.
For `O=C(O)c1cn2c(c(O)c1=O)C(=O)N(CC1CCCCC1)CN2C1c2ccccc2CCc2ccccc21` the same measures were 20 nM and 15 nM.
`Cc1ccc2c(c1)CCc1cc(C)ccc1C2N1CN(C(C)C)C(=O)c2c(O)c(=O)c(C(=O)O)cn21`: the concentration for a half-maximal effect (EC50) turned out to be 34 nM in the data set with Junin virus [1] and 13 nM in data set [2].
As to `O=C1c2c(O)c(=O)c(-c3noc(=O)[nH]3)cn2N(C2c3ccccc3CCc3ccccc32)CN1CC1CC1`, the concentration giving a half-maximal response (EC50) was determined as 189 nM with Junin virus [1] and 119 nM in data set [2].
For `O=C1c2c(O)c(=O)c(-c3nnn[nH]3)cn2N(C2c3ccccc3CCc3ccccc32)CN1CC1CC1` the same measures were above 1000 nM and 127 nM.
The corresponding values for `CC(C)N1CN(Cc2ccccc2)n2cc(C(=O)O)c(=O)c(O)c2C1=O` are above 1000 nM and above 1000 nM.
The corresponding values for `NC(=O)c1ncn([C@@H]2O[C@H](CO)[C@@H](O)[C@H]2O)n1` [RIBAVIRIN] are 2500 nM and 3500 nM.
